Test results as given in publication PMC7614683, “A small molecule PI3Kα activator for cardioprotection and neuroregeneration” (Nature, 2023).

Experiments:
[1] = tested on: A549 cells; experiment: pAKT S473 western blot / Wes, A549; format: cell-based, human
Description: Unless otherwise indicated, western blotting was performed with ECL detection. For time course studies, A549 cells were seeded at 250,000 cells per well in 6-well plates in RPMI (10% FBS + 1 mM Na-Pyruvate + 1% P/S) and allowed to adhere overnight. The next day they were serum-starved for 4 h prior to treatment with 100 nM insulin or 5 μM 1938, for the indicated time (5 min to 48 h) at 37°C, 5% CO2. For 1938 titration assays in MEFs, cells were seeded at 150,000 cells per well in 6-well plates and allowed to adhere overnight. The next day they were serum-starved for 4 h prior to treatment with insulin (1 μM), 1938 (0.2 to 30 μM, final DMSO concentration of 1.5%) or inhibitors (final DMSO concentration of ≤1.5%) for 15 min at 37°C, 5% CO2. Cells were washed twice with cold PBS and lysed using cold RIPA buffer (25 mM Tris.HCl pH 7.6, 150 mM NaCl, 1% NP-40, 1% sodium deoxycholate, 0.1% SDS supplemented with protease/phosphatase inhibitor cocktail from Merck). To remove cell debris, homogenates were spun at 13,000 rpm for 15 min at 4°C and the supernatant fraction recovered. Protein concentration was determined by colorimetric assay (BCA assay, Promega). Protein extracts were resolved by SDS-PAGE, transferred to nitrocellulose membranes, and incubated overnight at 4°C with specific antibodies as follows: anti-vinculin (Sigma #V9131) and the following antibodies from Cell Signaling Technology (CST): pAKT-S473 (CST #9271), pS6-S240/244 (CST #2215), pPRAS40-T246 (CST #2640) and total S6 (CST #2317). Primary ntibodies were used at 1:1000 dilution except anti-vinculin (1:10000). Secondary antibodies are also from Cell Signalling Technology: Anti rabbit IgG, HRP linked Antibody (CST #7074S), Anti mouse IgG, HRP linked Antibody (CST #7076S). Raw and uncropped blots are shown in Supplementary Fig. 1.
A549 cells were seeded at 200,000 cells per well in 24-well plates in DMEM (10% FBS + 1% P/S) and allowed to adhere overnight. The next day, cells were washed once with PBS before addition of serum-free DMEM for 24 h. […]

[2] = tested on: PI3Kα-WT MEFs; experiment: CellTiter-Glo cell assay, PI3Kα-WT MEFs; format: cell-based, mouse
Description: MEFs were seeded at 5000 cells per well in 96-well plates in DMEM supplemented with 10% FBS and 1% P/S, and allowed to attach overnight. The next day, cells were serum starved for 4 h prior to compound treatment in fresh serum-free DMEM. Compounds solubilised in DMSO were diluted 1:2 in a 12-point concentration response curve in DMSO. Intermediate plates were prepared by transferring 4 μl of compounds in DMSO into 96 μl of serum-free DMEM media. This was then used to treat cell plates by transferring 12.5 μl of solution from the intermediate plate into 87.5 μl of serum-free DMEM in the cell plates. […] Cell plates were incubated for 24 h, 48 h or 72 h at 37°C, 5% CO2, followed by determination of cell survival using the CellTiter-Glo® reagent according to manufacturer’s instructions (Promega #G7571). Endpoint luminescence was measured using CLARIOstar (BMG). Compound data were analyzed using GraphPad Prism 8.

CCN1CCN(c2ccc(Nc3cc(Nc4cccc5c4N(C(C)=O)CC5)ccn3)cc2)CC1 [Compound 1938]
time of peak pAKT^S473 activation ([1]; 1938 5 μM, A549 and MCF10A): 30 min | time to induction of pAKT^S473 ([1]; 1938 5 μM, A549 and MCF10A): 5 min | pAKT^S473 increase ([1]; A549): BYL719-sensitive increase in pAKT^S473 | concentrations with a decrease in ATP levels (PI3Kα-independent effects) ([2]; 24h): > 7.5 µM | concentration from which non-PI3Kα-dependent effects are observed ([2]; 48h and 72h incubation, PI3Kα-WT and PI3Kα-KO MEFs): 2 to 4 µM | EC50 ([2]; Mus musculus, 24h treatment, read-out: EC50 of increase in metabolic activity (ATP content)): ~500 nM
